# From patent US9643951B2, “Compound having somatostatin receptor agonistic activity and pharmaceutical use thereof” (ONO PHARMACEUTICAL CO., LTD., priority 2013, dated 2017)
# pEC50: −log10 of the molar value.
# Columns and labels:
# [1] = target: somatostatin receptor subtype 4 (SSTR4) (Homo sapiens, UniProt P31391); conditions: reported; cited from earlier work
# [2] = target: somatostatin receptor subtype 1 (SSTR1) (Homo sapiens, UniProt P30872); conditions: reported; cited from earlier work
# [3] = target: somatostatin receptor subtype 3 (SSTR3) (Homo sapiens, UniProt P32745); conditions: reported; cited from earlier work
# [4] = target: somatostatin receptor subtype 2 (SSTR2) (Homo sapiens, UniProt P30874); conditions: reported; cited from earlier work
# [5] = target: T1, human SSTR2 (Homo sapiens, UniProt P30874); assay: Evaluation of SSTR2 agonistic activity using cells expressing human SSTR2 (suppression of forskolin-stimulated cAMP production, SSTR2-CHO-K1); type: cell-based
# T1 construct: Myc; expressed in transfected cells
# Procedure: Evaluation of SSTR2 Agonistic Activity Using Cells Expressing Human SSTR2
# (1) Isolation of Human SSTR2 Gene
# Human brain cDNA was purchased from Ambion (catalogue No.: 7962; Lot No.: 040200121). PCR primers, hSSTR2_F1_XhoI: 5′-[…]-3′ (SEQ ID NO: 1) and hSSTR2_R1_EcoRI: 5′-[…]-3′ (SEQ ID NO: 2) were designed on the basis of the sequence GenBank NM_001050.
# PCR reaction (95° C. for 2 min.→[98° C. for 10 sec., 60° C. for 30 sec. and 68° C. for 90 sec.]×30 cycles) was carried out using the human brain cDNA as a template and using KOD-plus-(TOYOBO Co., Ltd.). The amplified PCR product was subjected to 1% agarose gel electrophoresis, purified using QIAquick Gel Extraction Kit (QIAGEN) and digested with restriction enzymes XhoI and EcoRI. The digested fragments were ligated to an expression vector (pIRESneo-Myc) using the DNA Ligation Kit Ver. 2 (Takara) and used for transformation of E. coli DH5a. The plasmid pIRESneo-Myc/hSSTR2 was prepared and the DNA sequence thereof was confirmed.
# (2) Culture of CHO-K1 Cells
# CHO-K1 (−) was cultured in Ham's F-12 medium (containing foetal bovine serum (10%), penicillin (100 U/mL) and streptomycin (0.1 mg/mL)). The transduced cells were cultured in the same medium supplemented with Geneticin (1 mg/mL).
# (3) Transduction of CHO-K1 Cells
# CHO-K1(−) cells were transduced with the plasmid pIRESneo-Myc/hSSTR2 using Lipofectamine 2000 (Invitrogen). After 48 hours, selection was carried out by replacing the medium with the one containing 1 mg/mL of Geneticin to establish a stable overexpressing cell line (SSTR2-CHO-K1).
# (4) Evaluation of SSTR2 Agonistic Activity
# The human SSTR2 agonistic activity of a test compound was evaluated according to the following procedures by using a suppression activity of intracellular cyclic AMP (cAMP) production by forskolin stimulation as an index. SSTR2-CHO-K1 cells suspended in Ham's F-12 medium (containing foetal bovine serum (10%), penicillin (100 U/mL) and streptomycin (0.1 mg/mL)) supplemented with 0.25 mg/mL of Geneticin were inoculated into a 96-well plate at a density of 4.0×10^4 cells/0.1 mL per well. On the next day, the medium was removed and washed twice with 0.1 mL of wash buffer [0.1% bovine serum albumin (BSA), 20 mmol/L 4-(2-hydroxyethyl)-1-piperazineethane sulphonic acid (HEPES)-containing Hank's balanced salt solution (HBSS)]. An assay buffer [[…] 3-isobutyl-1-methylxanthine (IBMX), 0.1% BSA, 20 mmol/L HEPES-containing HBSS] was added to the wells at 0.06 mL per well and the plate was incubated for 15 minutes under the conditions of 5% carbon dioxide and 37° C. Thereafter, an assay buffer containing a test compound at a concentration twice as high as the final concentration and 0.02 mmol/L of forskolin was added to wells at 0.06 mL per well and the plate was incubated for 30 minutes under the conditions of 5% carbon dioxide and 37° C. Thereafter, the Assay/Lysis buffer included in the cAMP-Screen® kit (available from Applied Biosystems) was added to wells at 0.12 mL per well and the plate was incubated for 30 minutes under the conditions of 5% carbon dioxide and 37° C. The concentration of cAMP in samples were measured by ELISA according to the instruction of the kit.
# [6] = Human hepatic microsome stability test; type: in vitro ADME; conditions: human hepatic microsomes 1 mg/mL; 60 minutes; test compound 0.001 mmol/L; 37° C.
# Procedure: Human Hepatic Microsome Stability Test
# To a reaction vessel heated to 37° C. in a water bath, 0.392 mL of phosphate buffer (0.1 mol/L, pH 7.4) containing human hepatic microsomes (1 mg/mL, Xenotech) and NADPH-Co-factor (NADP+1.3 mmol/L, BD-Bioscience) was added and pre-incubated for 5 minutes. A 50% acetonitrile solution (0.008 mL) containing 0.05 mmol/L of a test compound was added thereto to initiate the enzyme reaction (final concentration of the test compound: 0.001 mmol/L). Immediately after initiation of the reaction and at 60 minutes thereafter, 0.050 mL of the reaction solution was respectively collected, which was immediately added to an acetonitrile solution (0.2 mL) containing an internal standard (45 nmol/L, 1-[3-(3,5-dimethylphenyl)-4-quinolinyl]-4-piperidineamine) to terminate the enzyme reaction.
# The residual rate (%), which is indicative of stability of the test compound, was calculated using the ratio of peak areas between the test compound and the internal substance determined by LC/MS/MS (TSQ Quantum Discovery MAX, Thermo) analysis of the sample thus prepared by the above procedures followed by filtration, and the equation: {[residual rate (%)=[peak area of a test compound in a sample at 60 minutes after initiation of the reaction/peak area of the internal standard]/[peak area of the test compound in the sample immediately after initiation of the reaction/peak area of the internal standard]×100}.
# [7] = Evaluation of cytotoxicity using cultured human hepatocytes (intracellular ATP); type: cell-based; conditions: read-out: IC50 of cytotoxicity (concentration at which 50% of the luminescence is suppressed)
# Procedure: Evaluation of Cytotoxicity Using Cultured Human Hepatocytes
# Frozen adhesive human hepatocytes were thawed, suspended in a hepatocellular medium (HCM) purchased from Lonza and inoculated to a 96-well plate coated with collagen. The culture medium of the hepatocytes cultured overnight in an incubator (5% carbon dioxide, 95% air, 37° C.) was exchanged to the medium containing a test compound at a concentration of 0, 12.5, 25, 50, 100, 200 or 400 (×10^−6 mol/L) and the cells were further cultured for 24 hours. Cytotoxicity was evaluated by measuring the intracellular ATP concentration. Specifically, using the Promega Celltiter-Glo luminescent assay kit available from Promega, cells were lysed in the assay buffer included in the kit and the concentration of ATP released from the cells was measured according to the luminescence resulting from luciferin-luciferase enzyme activity. The luminescence was measured on the SpectraMax plate reader from Molecular Devices. The extent of cytotoxicity of a test compound is represented by the concentration (IC50) of the compound at which 50% of the luminescence is suppressed.
# [8] = test system: growth hormone (GH) secretion; assay: Evaluation of suppression of growth hormone (GH) secretion using rats (GHRH-induced); type: in vivo; conditions: for inhibition in vivo at 1 mg/kg: Rattus norvegicus, Procedure (B): oral administration 8 hours beforehand, read-out: percentage of suppression of GH secretion
# Procedure: Evaluation of Suppression of Growth Hormone (GH) Secretion Using Rats
# [Procedure (A): Administration of a Test Compound 30 Minutes Beforehand]
# A medium (distilled water (Otsuka distilled water, Otsuka Pharmaceutical Factory, […]) IGS rats (Charles River Laboratories Japan, Inc.)) and after 27 minutes, the animals were administered with 50 mg/kg of pentobarbital sodium (Somnopentyl, Kyoritsu Seiyaku Corporation) via the tail vein for anaesthesia. Three minutes after administration of pentobarbital sodium, the rats were administered with 0.01 mg/kg of growth hormone-releasing hormone (GHRH, Bachem) via the tail vein to induce GH secretion. In order to measure the blood GH concentration, 0.2 mL of blood was collected through the jugular vein at 5 minutes after administration of GHRH. The collected blood was centrifuged at 4° C., 13,000×g for 5 minutes to obtain plasma. The blood GH concentration was measured by using Rat/Mouse Growth Hormone ELISA (Millipore) following the instruction of the kit. The percentage (%) of suppression of GH secretion was determined by using the obtained blood GH concentration and the equation {[suppression (%) of GH secretion]=([blood GH concentration of the group administered with the medium]−[blood GH concentration of the group administered with a test compound])/[blood GH concentration of the group administered with the medium]×100}. In the equation, the group administered with the medium represents the group of animals administered with the medium and the group administered with a test compound represents the group of animals administered with a test compound dissolved in the medium.
# [Procedure (B): Administration of a Test Compound 8 Hours Beforehand]
# A medium (distilled water (Otsuka distilled water, Otsuka Pharmaceutical Factory, […]) IGS rats (Charles River Laboratories Japan, Inc.)) and after 7 hours and 57 minutes, the animals were administered with 50 mg/kg of pentobarbital sodium (Somnopentyl, Kyoritsu Seiyaku Corporation) via the tail vein for anaesthesia. Three minutes after administration of pentobarbital sodium, the rats were administered with 0.01 mg/kg of growth hormone-releasing hormone (GHRH, Bachem) via the tail vein to induce GH secretion. The rest of the procedure is the same as in [Procedure (A)] described above.
# [9] = test system: gastric acid secretion; assay: Evaluation of suppression of gastric acid secretion using rats (pyloric ligation); type: in vivo; conditions: continuous intravenous administration at 1 mcg (microgram)/kg/h
# T1 sequence (P30874 whole entry): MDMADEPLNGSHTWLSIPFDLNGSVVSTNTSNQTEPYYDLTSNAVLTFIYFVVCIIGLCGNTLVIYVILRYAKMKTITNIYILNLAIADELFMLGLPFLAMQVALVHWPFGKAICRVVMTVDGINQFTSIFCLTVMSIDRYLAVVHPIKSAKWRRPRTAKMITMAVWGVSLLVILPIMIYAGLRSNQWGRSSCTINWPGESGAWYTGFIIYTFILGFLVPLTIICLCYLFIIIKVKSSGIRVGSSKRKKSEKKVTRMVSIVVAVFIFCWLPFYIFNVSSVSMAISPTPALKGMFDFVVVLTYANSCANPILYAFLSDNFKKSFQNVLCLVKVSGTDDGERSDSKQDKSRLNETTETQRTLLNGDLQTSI
# Sequence of somatostatin receptor subtype 3 (SSTR3) (P32745 whole entry, species assumed): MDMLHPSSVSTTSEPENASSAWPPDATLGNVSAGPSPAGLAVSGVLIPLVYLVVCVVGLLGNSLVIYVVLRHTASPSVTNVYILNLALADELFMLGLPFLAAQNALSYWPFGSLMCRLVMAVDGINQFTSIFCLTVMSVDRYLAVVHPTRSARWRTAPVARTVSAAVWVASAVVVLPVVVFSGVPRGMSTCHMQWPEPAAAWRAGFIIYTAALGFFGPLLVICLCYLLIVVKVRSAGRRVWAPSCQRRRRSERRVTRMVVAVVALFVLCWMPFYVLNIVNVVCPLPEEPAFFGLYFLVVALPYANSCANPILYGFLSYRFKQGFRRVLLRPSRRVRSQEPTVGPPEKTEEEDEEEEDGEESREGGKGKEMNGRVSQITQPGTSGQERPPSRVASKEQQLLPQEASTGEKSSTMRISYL
# Sequence of somatostatin receptor subtype 4 (SSTR4) (P31391 whole entry, species assumed): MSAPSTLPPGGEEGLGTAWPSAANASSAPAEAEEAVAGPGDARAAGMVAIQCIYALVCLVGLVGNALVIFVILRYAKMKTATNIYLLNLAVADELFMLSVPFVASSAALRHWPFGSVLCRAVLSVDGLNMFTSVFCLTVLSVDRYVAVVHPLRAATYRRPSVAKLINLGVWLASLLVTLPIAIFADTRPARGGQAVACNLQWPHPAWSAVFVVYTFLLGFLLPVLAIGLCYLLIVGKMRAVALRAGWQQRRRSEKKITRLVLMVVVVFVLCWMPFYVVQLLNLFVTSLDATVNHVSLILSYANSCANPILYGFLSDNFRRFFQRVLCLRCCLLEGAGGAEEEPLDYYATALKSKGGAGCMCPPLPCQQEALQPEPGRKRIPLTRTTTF
# Sequence of somatostatin receptor subtype 1 (SSTR1) (P30872 whole entry, species assumed): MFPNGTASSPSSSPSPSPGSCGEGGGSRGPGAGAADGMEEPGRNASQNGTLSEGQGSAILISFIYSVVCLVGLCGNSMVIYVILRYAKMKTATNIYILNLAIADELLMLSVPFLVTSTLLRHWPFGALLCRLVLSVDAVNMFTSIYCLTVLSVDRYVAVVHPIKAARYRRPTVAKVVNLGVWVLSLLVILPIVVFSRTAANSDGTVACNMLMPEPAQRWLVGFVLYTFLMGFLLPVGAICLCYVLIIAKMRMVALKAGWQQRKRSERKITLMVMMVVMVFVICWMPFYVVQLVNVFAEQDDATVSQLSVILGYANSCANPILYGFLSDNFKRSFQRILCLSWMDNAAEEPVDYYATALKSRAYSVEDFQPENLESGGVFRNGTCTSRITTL
# Sequence of somatostatin receptor subtype 2 (SSTR2) (P30874 whole entry, species assumed): as the sequence (P30874 whole entry) above
SMILES,binding to SSTR4 [1],binding to SSTR1 [2],binding affinity to SSTR3 [3],binding affinity to SSTR2 [4],pEC50 [5],residual rate [6] [%],IC50 at 24 h [7] [µM],inhibition in vivo at 1 mg/kg [8] [%],percentage of suppression of gastric acid secretion [9] [%],"suppression of GH secretion ([8]; Procedure (A): 30 minutes beforehand, 0.003 mg/kg by subcutaneous administration) [%]"
CC(C)[C@@H]1NC(=O)[C@H](CCCCN)NC(=O)[C@@H](Cc2c[nH]c3ccccc23)NC(=O)[C@H](Cc2ccc(O)cc2)NC(=O)[C@@H](NC(=O)[C@H](N)Cc2ccc3ccccc3c2)CSSC[C@@H](C(=O)N[C@H](C(N)=O)[C@@H](C)O)NC1=O [lanreotide acetate],do not bind,do not bind,moderate affinity,high affinity,–,–,–,–,–,–
"CC(C)(C#N)c1ccc(-c2cncc(-c3cc(Cl)cc(Cl)c3)c2N2CCC(N)CC2)cc1 [Example 2(4), 2-{4-[4-(4-amino-1-piperidinyl)-5-(3,5-dichlorophenyl)-3-pyridinyl]phenyl}-2-methylpropanenitrile]",–,–,–,–,10.62,94.0,13,88,–,–
"CCNC1CCN(c2c(/C=C(\C)c3cccc(C#N)c3)cncc2-c2cc(Cl)cc(Cl)c2)CC1 [Example 5, 3-[(1E)-1-{5-(3,5-dichlorophenyl)-4-[4-(ethylamino)-1-piperidinyl]-3-pyridinyl}-1-propen-2-yl]benzonitrile]",–,–,–,–,10.33,79.7,18,90,–,–
"C[C@@H](O)[C@@H]1NC(=O)[C@H](CCCCN)NC(=O)[C@@H](Cc2c[nH]c3ccccc23)NC(=O)[C@H](Cc2ccccc2)NC(=O)[C@@H](NC(=O)[C@H](N)Cc2ccccc2)CSSC[C@@H](C(=O)N[C@H](CO)[C@@H](C)O)NC1=O [octreotide, reference compound]",–,–,–,–,–,–,–,–,39,98
